From US5071988A, “Substituted benzoylbenzene-, biphenyl- and 2-oxazole-alkanoic acid derivatives” (American Home Products Corporation, priority 1991, dated 1991)
Where two headings read alike, the source gives them in different places.

What was measured:
TxB2 = test: reverse passive Arthus pleurisy assay, TxB2; type: in vivo, rat (male Lewis); conditions: for ED50 TxB2 / ED50: 5 min; for ED50: Rattus norvegicus, po, read-out: ED50 TxB2
Protocol: (§1) The compounds of the invention are further tested in the reverse passive Arthus pleurisy assay to evaluate their effectiveness in inflammatory mediator release and/or the fluid and cellular phases of an inflammatory response.
(§2) A reverse passive Arthus reaction is induced in the pleural cavity of male Lewis rats (150-200 g; fasted overnight prior to use) by the intravenous administration of bovine serum albumin (BSA; 4 mg/0.2 ml) followed by 30 minutes later by the injection of rabbit anti-BSA (1 mg/0.2 ml; lyophilized IgG fraction; Organon Teknika, West Chester, Pa.) into the right pleural space under halothane anesthesia. Drugs or vehicle (0.5% Tween-80) control are administered orally in a volume of 1 ml/100 g body weight at 1 hour prior to the anti-BSA. Animals are sacrificed at either the time of peak eicosanoid production (i.e. 5 minutes after anti-BSA for immunoreactive TxB2 10 minutes for immunoreactive LTB4, 20 minutes for immunoreactive LTC4) or at the time of peak neutrophil infiltration (4 hours after anti-BSA) by CO2 inhalation. The pleural cavity is then exposed, the fluid exudate removed by gentle vacuum aspiration and the volume of exudate is recorded. For the determination of cellular infiltration, the pleural cavity is rinsed with 3 ml of 0.1% EDTA in sterile saline, and the recovered wash is pooled with the exudate. Cell number is determined on a model ZBI Coulter counter. For determination of eicosanoid production, undiluted pleural exudate is microfuged and the supernatant is extracted with ethanol (8-10 times volume). Extracts are either stored at -20° C., or are evaporated to dryness under a stream of N2 and reconstituted in radioimmunoassay (RIA) buffer.
(§3) Eicosanoids are quantitated by RIA according to the procedure specified by the RIA kit manufacturer (Advanced Magnetics, Cambridge, Mass.). Briefly, 100 μl of ^3 H-labeled eicosanoid and 100 μl of specific antibody are sequentially added to 100 μl of extracted pleural exudate in BGG -phosphate buffer which contains 0.01M phosphate, 0.1% bovine gamma globulin and 0.1% sodium azide at pH 7.0. Antibody-bound eicosanoid is separated from unbound eicosanoid by the addition of 750 μl of dextran (0.4%)-coated charcoal (0.4% Norit A) containing 0.1% sodium azide. The mixture is centrifuged at 2000 RPM at 5° C. for 15 minutes to pellet the charcoal and adsorbed unbound eicosanoid. Antibody-bound labeled eicosanoid is quantitated by counting in a liquid scintillation counter, and is correlated to concentration by a standard curve.
(§4) Inflammatory cells are expressed as 10^6 cells/ml, pleural exudate is expressed as ml of fluid, and the amount of eicosanoids in the pleural cavity is expressed as ng/ml of exudate. Mean±S.E.M. is determined for each group. Percent inhibition (% I) of cell number, exudate volume and eicosanoid production is calculated for vehicle-treated control groups, and the responses in drug-treated rats are then expressed as the mean % I of the control. […] Exp. Ther., 96, 99-113 (1949).

LTB4 = test: reverse passive Arthus pleurisy assay, LTB4; type: in vivo, rat (male Lewis); conditions: for ED50: Rattus norvegicus
Protocol: as §1, §2, §3, §4

Fluid Exudation = test: reverse passive Arthus pleurisy assay, fluid exudation; type: in vivo, rat (male Lewis); conditions: 1 hour prior to anti-BSA, standard drugs; for ED30 Fluid Exudation: p.o.; for ED30: Rattus norvegicus, po
Protocol: as §1, §2, §4

Cellular Influx = test: reverse passive Arthus pleurisy assay, cellular influx; type: in vivo, rat (male Lewis); conditions: Rattus norvegicus, po, 4 h, 1 hour prior to anti-BSA; standard drugs
Protocol: as §1, §2, §4

[1] = test system: LTB4 synthesis by rat glycogen-elicited polymorphonuclear leukocytes (PMN); test: inhibition of LTB4 synthesis by rat glycogen-elicited polymorphonuclear leukocytes (PMN); type: cell-based, rat (female Wistar); conditions: Leukocyte
Excerpt: This is especially true with respect to 5,12-diHETE, which is also denoted as LTB4 [see Ford-Hitchinson, J. Roy. […] Med., 74, 831 (1981)]. Compounds which inhibit the PLA2 -mediated release of arachidonic acid thereby effectively prevent the oxidation of arachidonic acid to the various leukotriene products via the lipoxygenase cascade. Accordingly, the specificity of action of PLA2 inhibitors can be determined by the activity of test compounds in this assay, which measures the ability of compounds to inhibit the synthesis of LTB4 by rat glycogen-elicited polymorphonuclear leukocytes (PMN) in the presence of exogenous substrate.
The assay is carried out as follows:
(§5) Rat polymorphonuclear leukocytes (PMNs) are obtained from female Wistar rats (150-200 g) which receive an injection of 6% glycogen (10 ml i.p.). Rats are sacrificed 18-24 hours post injection by CO2 asphyxiation and the elicited cells are harvested by peritoneal lavage using physiological saline (0.9% NaCl). The exudate is centrifuged at 400 xg for 10 minutes. The supernatant fluid is discarded and the cell pellet is resuspended to a concentration of 2.0×10^7 cells/mL in HBSS containing Ca^++ and Mg^++ and 10 μM L-cysteine.
(§6) To 1 mL aliquots of cell suspension, test drugs or vehicle are added, then preincubated at 37° C. for 10 minutes. A23187 (1 μM), [^3 H]-AA (3.0 μCi/mL) and unlabeled AA (1 μM) are then added and the samples are further incubated for 10 minutes. The reaction is terminated by centrifugation and pelleting cells. Supernatants are then analyzed by HPLC analysis on a 15 cm×4.6 mm ID supelcosil LC-18 (Supelco)(3M) column, using a two solvent system at a flow rate of 1.4 mL total flow as follows:
Gradient: (system is equilibrated with Solvent A)
Percent solvent changes are accomplished in a linear fashion.
Injections: 140 μL of each supernatant is injected directly onto column and ^3 H arachidonic acid metabolites are monitored using an on-line radioactivity detector (Ramona, IN/US, Fairfield, N.J.).
Standards: 10^4 -2.0×10^4 dpm of eicosanoids of interest are injected in 90 μL EtOH cocktail.
Results are expressed as percent inhibition at a given compound dose or as an IC50 value.

[2] = test system: PGE2 synthesis by rat glycogen-elicited polymorphonuclear leukocytes (cyclooxygenase); test: inhibition of PGE2 (cyclooxygenase product) synthesis by rat glycogen-elicited polymorphonuclear leukocytes; type: cell-based, rat (female Wistar); conditions: Leukocyte; for inhibition at 0.5 µM: read-out: % Inhibition (PGE2 synthesis)
Protocol: as §5, §6
In this assay, the procedure of Example 14 is carried out as described. However, in order to determine cyclooxygenase activity, the samples are cochromatographed with authentic reference [^3 H]-PGE2.

Human Synovial PLA2 = target: T1, Human Synovial PLA2 (Homo sapiens, UniProt P14555); test: in vitro isolated phospholipase A2 assay, human synovial fluid PLA2; type: biochemical; conditions: read-out: % Inhibition at 10 μM HSF
T1 construct: Purified human synovial fluid; from tissue; host or cells: human synovial fluid (purified)
T1 sequence (P14555 21-144): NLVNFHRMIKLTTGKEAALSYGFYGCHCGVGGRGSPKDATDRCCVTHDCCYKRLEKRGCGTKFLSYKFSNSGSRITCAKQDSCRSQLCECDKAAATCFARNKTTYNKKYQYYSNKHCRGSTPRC
Protocol: The compounds of the invention are tested in an in vitro isolated phospholipase A2 assay to determine the ability of the test compounds to inhibit the release of arachidonic acid from an arachidonic acid-containing substrate by the action of phospholipase A2 enzyme from human and non-human sources.
Into a 15 mL polypropylene tube are added the following:
^ 6 Two human PLA2 enzymes are used:
b) Purified human synovial fluid.
Incubate the 100 μL reaction mixture for 10 minutes at 37° C. in a shaking water bath. The reaction is terminated by the addition of 2 mL tetrahydrofuran, followed by vortexing. NH2 columns (100 μg/mL--Analytichem International) are conditioned with 0.5 mL tetrahydrofuran followed by 0.5 mL tetrahydrofuran/water (2 mL:0.1 mL, v/v).
The sample is loaded onto the columns and slowly drawn through them. The hydrolyzed arachidonic acid retained in the columns is eluted therefrom with 1 mL tetrahydrofuran/glacial acetic acid (2%). The arachidonic acid is transferred to scintillation vials and quantitated by β-counting analysis. A "total counts" sample is prepared by pipetting 25 μL ^3 H-arachidonate E. coli directly into a scintillation vial to which is added 1 mL tetrahydrofuran. 10 mL aquasol (scintillation cocktail) is added to all samples.

[3] = p.o., 1 hour prior to anti-BSA, standard drugs
[4] = at 0.5 μM, negative values denote potentiation of cyclooxygenase
[5] = negative values denote potentiation of cyclooxygenase
[6] = at 10 μM, human synovial fluid, negative values denote potentiation of HSF

For `CN=C1CCN(c2cccc(C(F)(F)F)c2)N1` [BW540C], the “ED50 TxB2” value (TxB2; [3]) was 19 mg/kg p.o and the “ED50 LTB4” value (LTB4; [3]) was 30 mg/kg p.o.
For `C[C@@H]1C[C@H]2[C@@H]3CCC4=CC(=O)C=C[C@]4(C)[C@@]3(F)[C@@H](O)C[C@]2(C)[C@@]1(O)C(=O)CO` [Dexamethasone], the “ED30 Fluid Exudation” value (Fluid Exudation) was 0.05 mg/kg p.o and the ED30 (Cellular Influx) was 0.13 mg/kg.
`O=C(O)Cc1ccccc1Nc1c(Cl)cccc1Cl` [Diclofenac] was tested, and the ED50 (TxB2) was 6 mg/kg.
With `CC(=O)c1ccc(-c2ccc(OCc3ccc4ccccc4n3)cc2)c([N+](=O)[O-])c1` [Example 1, 1-[2-Nitro-4'-(2-quinolinylmethoxy)-[1,1'-biphenyl]4-yl]ethanone] the inhibition at 0.5 µM [1] was 95% and the inhibition at 0.5 µM [2, 4] was -13%.
`O=C(O)Cc1ccc(-c2ccc(OCc3ccc4ccccc4n3)cc2)c(F)c1` [Example 2, 2-Fluoro-4'-(2-quinolinylmethyoxy)-[1,1'-biphenyl]-4-acetic acid] was tested, and the inhibition at 0.5 µM [1] was 91% and the inhibition at 0.5 µM [2] was -22%.
`O=C(O)Cc1cccc(C(=O)c2ccc(OCc3ccc4ccccc4n3)cc2)c1` [Example 3, 3-[4-(2-Quinolinylmethoxy)benzoyl]benzene acetic acid] showed an inhibition at 0.5 µM [1] of 38%, an inhibition at 10 µM [1] of 87% and an inhibition at 0.5 µM [2, 4] of -8%. The inhibition at 10 µM [2, 5] was 8% and the inhibition at 10 µM (Human Synovial PLA2; [6]) was 25.5%.
With `O=C(O)Cc1cccc(C(=O)c2ccc(OCc3ccc4ccccc4c3)cc2)c1` [Example 4, 3-[4-(2-Naphthalenylmethoxy)benzoyl]benzene acetic acid] the inhibition at 10 µM [1] was 8%, the inhibition at 10 µM [2, 5] was -31% and the inhibition at 10 µM (Human Synovial PLA2; [6]) was 15.1%.
Molecule `O=C(O)CCc1nc(-c2ccc(OCc3ccc4ccccc4c3)cc2)c(-c2ccccc2)o1` [Example 6, 4-[4-[2-Naphthalenylmethoxy]phenyl]-5-phenyl-2-oxazole propanoic acid] has an inhibition at 0.5 µM [1] of 81%, an inhibition at 10 µM [1] of 95% and an inhibition at 10 µM [2, 5] of -191%. For the same molecule, the inhibition at 0.5 µM [2] was -12%.
With `COC(=O)CCc1nc(-c2ccc(OCc3ccc4ccccc4c3)cc2)c(-c2ccccc2)o1` [Example 6A, 4-[4-[2-Naphthalenylmethoxy]phenyl]-5-phenyl-2-oxazole propanoic acid methylester] the inhibition at 0.5 µM [1] was 63%, the inhibition at 10 µM [1] was 94% and the inhibition at 0.5 µM [2, 4] was -29%. For the same molecule, the inhibition at 10 µM [2, 5] was -79%.
`Cn1c(COc2ccc(-c3nc(CCC(=O)O)oc3-c3ccccc3)cc2)nc2ccccc21` [Example 7, 4-[4-[(1-Methyl-1H-benzimidazol-2-yl)methoxy]phenyl]-5-phenyl-2-oxazole propanoic acid] was tested, and the inhibition at 10 µM [1] was 85%.
In the case of `O=C(O)Cc1ccc(-c2ccc(OCc3ccc4ccccc4n3)cc2)c(F)c1` [Example 9, 2-Fluoro-4'-(2-quinolinylmethoxy)[1,1'-biphenyl]-4-acetic acid, 2-amino-2-hydroxymethyl-1,3-propane diol], the ED50 (LTB4; reverse passive Arthus pleurisy, oral, read-out: ED50 (LTB4 Synthesis)) is reported as 0.8 mg/kg.
For `COc1ccc2cc([C@H](C)C(=O)O)ccc2c1` [Naproxen], the “ED50 TxB2” value (TxB2; [3]) was 0.24 mg/kg p.o, the “% Inh LTB4” value (LTB4; 4 mg/kg p.o.) was 0% and the “ED30 Fluid Exudation” value (Fluid Exudation) was 3.9 mg/kg p.o.
Work on `O=C1CCN(c2ccccc2)N1` [Phenidone] yielded an ED50 (TxB2; [3]) of 69 mg/kg, an ED50 (LTB4; po, 1 hour prior to anti-BSA, standard drugs, read-out: ED50 LTB4) of 10 mg/kg and an ED30 (Fluid Exudation) of 21 mg/kg. It also gave an ED30 (Cellular Influx) of 23 mg/kg.
For `CN1C(C(=O)Nc2ccccn2)=C(O)c2ccccc2S1(=O)=O` [Piroxicam], the ED30 (Fluid Exudation) was 1 mg/kg and the ED30 (Cellular Influx) was 3 mg/kg.
For `C[C@H](C(=O)O)c1ccc2cc(OCc3ccc4ccccc4n3)ccc2c1.NC(CO)(CO)CO` [Wy-50,295-A], the “% Inh TxB2” value (TxB2; 75 mg/kg p.o.) was 0%.
`CC(C(=O)O)c1cccc(C(=O)c2ccccc2)c1` (stereo not drawn) [ketoprofen] showed an inhibition at 10 µM (Human Synovial PLA2) of -16.9% and an ED50 (TxB2) of 0.18 mg/kg.
